Tests used:
Assay type in all cases: in vivo, Wistar rats
[1] = test system: rats with MCAO; experiment: Neurological deficit (mNSS) in MCAO model; details: 24 h to day 7
Method: A MCAO animal model was used to characterize the effects of compound 1 on the development and resolution of stroke. At the baseline, we performed the MRI and hole-board test before MCAO surgery. Once animals recovered after the surgery, we stratified them based on their background psycho-emotional status and performed a control MRI to access whether the occlusion was sufficient or not. […] From 24 h to day 7, the neurological status was assessed daily according to the neurological scale (mNSS). By the end of day 7, animals underwent MRI. In addition, MRI was performed on days 14 and 28 (Shceme 3)The hole-board test was repeated on days 10 and 24. The degree of motor function impairment, the deficit of exploratory behavior, and the recovery process were assessed in the beam walking test (BWT), which was performed twice on days 12 and 14. An open field test was carried out on days 16 and 26. […]
In the first experimental series, the following test systems were used: HBT (OpenScience, Russia), OFT (OpenScience), and LDT (OpenScience). […] All rat behavioral changes were evaluated during the four weeks after stroke simulation. […] General neurological disorders were assessed using the modified neurological severity score (mNSS). Motor and cognitive impairment were evaluated using the following functional tests: BWT (OpenScience), HBT (OpenScience), and OFT (OpenScience). […]

[2] = test system: intact animals; experiment: Open field test (OFT) in intact animals; details: intact rats, day 7; compound 1 125 mg kg^−1, piracetam 300 mg kg^−1, intraperitoneally for 5 days; mean and SD
Source text: (§1) Before the study, the intact animals were subjected to the hole-board test (HBT), weighed, and stratified into three uniform groups in terms of orientational/exploratory activity and weight. […] On day 7, we performed OFT (open field test), followed by LDB (light—dark box test) on day 8 (Scheme 3, Step 1). These tests assess the activity and describe the behavior of the animals. According to OFT, compound 1 decreased the vertical activity and the immobility time compared to the saline-treated group (Table 2).
(§2) Before conducting the experiments, the animals underwent the HBT and were allocated to groups based on their behavior score and weight. Kullback–Leibler divergence method for allocation based on two numerical parameters was used for allocation. We used a sum score for behavior tests and weight. Subsequently, two experimental series were performed. In the first series, rat behavior without stroke modeling after injection of compound 1 (experimental group, n = 10) or saline (control group, n = 10) was evaluated (Scheme 3a). […] Compound 1 was injected at a dose of 125 mg kg^−1 and an injection volume of 0.5 mL. […] For the experiments, the following predetermined exclusion criteria were used: (1) incomplete MCAO indicated by an incomplete lesion on magnetic resonance imaging (MRI) after 24 h [n = 4]and (2) post-operative weight loss of > 20% and severe animal condition within the first post-stroke 48 h [n = 3]. Animals reached humane endpoints based on the absence of nociceptive reflex withdrawal responses, hypothermia, and heart rate reduction to 100–150 beats min^−1. As steroid treatment could have influenced the experiment, rats were humanely euthanized according to the ethical protocol. The experiment design is presented in Scheme 3b.
(§3) In the first experimental series, the following test systems were used: HBT (OpenScience, Russia), OFT (OpenScience), and LDT (OpenScience). The design for the second experimental series was as follows. All rat behavioral changes were evaluated during the four weeks after stroke simulation. Individuals who performed these procedures were double-blinded. General neurological disorders were assessed using the modified neurological severity score (mNSS). Motor and cognitive impairment were evaluated using the following functional tests: BWT (OpenScience), HBT (OpenScience), and OFT (OpenScience). The BWT was performed between postoperative days 12 and 14. In this test, motor dysfunction in all four limbs was evaluated; specifically, the number of steps, errors, and slides were counted. The overall score was calculated using the following formula: score = errors + 0.5 × slides × 100/total number of steps [47]. The beam apparatus consists of 165 cm beams with a flat surface of 10 mm or 6 mm width, resting 100 cm above the table top on two poles. A black box is placed at the end of the beam as the finish point. Nesting material from home cages is placed in the black box to attract the rat to the finish point. A lamp (with 60-watt light bulb) is used at the start to stimulate the animals to move towards the end.

[3] = test system: intact animals; experiment: Light-dark box test (LDB) in intact animals; details: intact rats, day 8; compound 1 125 mg kg^−1, piracetam 300 mg kg^−1, intraperitoneally for 5 days; mean and SD
Source text: as §1, §2, §3

[4] = test system: rats with MCAO; experiment: Beam walking test (BWT) after MCAO; parameters: key to Left forelimb score / Right forelimb score / Left hindlimb score / Right hindlimb score: score = errors + 0.5 × slides × 100/total number of steps; details: for Animals that failed to train for the BWT test: after MCAO, days 12–14; for Left forelimb score / Left hindlimb score / Right forelimb score / Right hindlimb score: day 14 after MCAO, mean ± SD
Method: A MCAO animal model was used to characterize the effects of compound 1 on the development and resolution of stroke. At the baseline, we performed the MRI and hole-board test before MCAO surgery. Once animals recovered after the surgery, we stratified them based on their background psycho-emotional status and performed a control MRI to access whether the occlusion was sufficient or not. […] From 24 h to day 7, the neurological status was assessed daily according to the neurological scale (mNSS). By the end of day 7, animals underwent MRI. In addition, MRI was performed on days 14 and 28 (Shceme 3)The hole-board test was repeated on days 10 and 24. The degree of motor function impairment, the deficit of exploratory behavior, and the recovery process were assessed in the beam walking test (BWT), which was performed twice on days 12 and 14. An open field test was carried out on days 16 and 26.
The increased locomotor activity, expanded orientational research activity, and reduced anxiety and depressive behavior in rats treated with compound 1 highlighted the possible benefits of the compound in post-ischemic stroke management. As stroke affects not only locomotor activity but also the cognitive behavior, we conducted an additional beam walking test. It is proven that depression and anxiety in the post-stroke period increase the risk of mortality and affect the functional recovery of patients. There is a direct relationship between the severity of cognitive deficits, patients’ survival, and their successful social integration. Conventionally, BWT is aimed at finding motor deficits on the contralateral side of the brain lesion. However, based on the test methodology, which was testing animals before surgery and on the 12th–14th days after surgery, we can indirectly conclude whether the memory trace is preserved or lost. […] Most of the animals from the saline group sat still and one rat fell. Since the hippocampus, which is a structure responsible for the formation of both […] and long-term memory, is involved in the pathological process of ischemia, in rats, we hypothesized that the ability to reproduce and form a memorable trace can be also affected in our MCAO model. According to MRI data, the hippocampus was indeed affected by MCAO. Thus, compound 1 possibly helped to restore neural connections in the hippocampus as quickly as possible.
as §3

SMILES | Regression of neurological symptoms [1] [%] | Crossings (n) [2] [n] | Grooming time [2] [s] | Immobility duration [2] [s] | Number of center sector crossings (center) (n) [2] [n] | Vertical activity (n) [2] [n] | Number of crossings (n) [3] [n] | Number of peeking out events (n) [3] [n] | Time spent in the light compartment [3] [s] | Animals that failed to train for the BWT test [4] | Left forelimb score [4] | Left hindlimb score [4] | Right forelimb score [4] | Right hindlimb score [4]
O=C(CN1CC(c2ccccc2)CC1=O)NCCS(=O)(=O)[O-].[K+] (stereo not shown) [Compound 1, potassium 2-[2-(2-oxo-4-phenylpyrrolidin-1-yl)acetamido]ethane-1-sulfonate] | 35 | 53.7 ± 10.3 | 40.6 ± 33.2 | 12.8 ± 8.4 | 1.6 ± 0.6 | 10.3 ± 4.3 | 2.9 ± 1.2 | 5.2 ± 2.8 | 16.5 ± 8.3 | No animals failed | 42.2 ± 28.0 | 28.8 ± 15.3 | 11.6 ± 13.8 | 45.8 ± 30.4
NC(=O)CN1CCCC1=O [Piracetam, reference compound] | 25 | 65.4 ± 20.4 | 14.4 ± 9.4 | 16.0 ± 10.4 | 1.4 ± 1.2 | 15.9 ± 7.5 | 3.7 ± 1.6 | 4.8 ± 2.5 | 26.3 ± 13.4 | more than half of the animals and five | 32.8 ± 26.4 | 24.8 ± 22.2 | 12.4 ± 16.0 | 36.0 ± 30.4

— publication PMC8541353, “A Novel Phenylpyrrolidine Derivative: Synthesis and Effect on Cognitive Functions in Rats with Experimental Ishemic Stroke” (Molecules, 2021)
